Target: T1, FER (Homo sapiens, UniProt P16591)
T1 construct: purchased Thermo Fisher Scientific (Life Technologies) SelectScreen
Assay: SelectScreen Z'LYTE
Format: biochemical
Summary of the method: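 NU5455 was profiled across the SelectScreen Broad panel of kinase activity and binding assays. Z'LYTE reactions such as CSF1R ran at apparent Km ATP, while the Adapta CAMK1 assay used ATP listed as 10. Values are given as percent.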

T1 sequence (P16591 whole entry): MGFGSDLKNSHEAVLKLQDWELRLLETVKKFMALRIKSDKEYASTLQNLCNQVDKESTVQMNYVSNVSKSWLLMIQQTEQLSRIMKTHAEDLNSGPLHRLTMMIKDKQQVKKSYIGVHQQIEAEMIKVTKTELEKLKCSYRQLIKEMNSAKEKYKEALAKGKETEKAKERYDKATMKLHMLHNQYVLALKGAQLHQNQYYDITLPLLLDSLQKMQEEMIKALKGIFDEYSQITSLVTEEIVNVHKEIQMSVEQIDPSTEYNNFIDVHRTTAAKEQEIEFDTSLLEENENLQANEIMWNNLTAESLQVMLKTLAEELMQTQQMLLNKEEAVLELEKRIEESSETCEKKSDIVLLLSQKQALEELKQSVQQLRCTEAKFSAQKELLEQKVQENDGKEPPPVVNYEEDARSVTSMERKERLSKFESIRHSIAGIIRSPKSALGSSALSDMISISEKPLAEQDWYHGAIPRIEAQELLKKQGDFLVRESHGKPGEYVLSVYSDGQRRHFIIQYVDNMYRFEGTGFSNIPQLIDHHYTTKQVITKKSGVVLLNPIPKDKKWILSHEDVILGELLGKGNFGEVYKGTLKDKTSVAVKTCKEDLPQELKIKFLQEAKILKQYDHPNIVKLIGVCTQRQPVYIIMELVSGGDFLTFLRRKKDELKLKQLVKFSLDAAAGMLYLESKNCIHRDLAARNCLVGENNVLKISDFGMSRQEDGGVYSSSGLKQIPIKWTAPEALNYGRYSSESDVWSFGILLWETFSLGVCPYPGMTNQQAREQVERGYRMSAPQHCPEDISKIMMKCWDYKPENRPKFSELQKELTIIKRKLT

CN(C(=O)CN1CCOCC1)c1ccc2sc3c(-c4cccc5c(=O)cc(N6CC7CCC(C6)O7)oc45)cccc3c2c1 [NU5455]
inhibition at 1 µM: 7.1%

— article PMC6934184, “Selective DNA-PKcs inhibition extends the therapeutic index of localized radiotherapy and chemotherapy” (The Journal of Clinical Investigation, 2019)
